Source: patent US10131652B2, “Pyrimidinyloxy benzene derivatives as herbicides” (E. I. DU PONT DE NEMOURS AND COMPANY, priority 2014, dated 2018)

Columns and labels:
Assay type in all cases: in vivo
[1] = system: barnyardgrass (Echinochloa crus-galli); experiment: Test C flooded paddy test plant response; conditions: Flood, 250 g ai/ha; scale of 0 to 100 where 0 is no effect and 100 is complete control; 13 to 15 days
Procedure, shortened: (§1)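 2-leaf plants; flood 3 cm, cpd into paddy water; greenhouse 13–15 d; visual score vs untreated, 0 = no effect, 100 = complete control; dash = no result.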

[2] = system: rice (Oryza sativa); experiment: Test C flooded paddy test plant response; conditions: Flood, 250 g ai/ha; scale of 0 to 100 where 0 is no effect and 100 is complete control; 13 to 15 days
Procedure, shortened: as §1

[3] = system: ducksalad (Heteranthera limosa); experiment: Test C flooded paddy test plant response; conditions: Flood, 250 g ai/ha; scale of 0 to 100 where 0 is no effect and 100 is complete control; 13 to 15 days
Procedure, shortened: as §1

[4] = system: small-flower umbrella sedge (Cyperus difformis); experiment: Test C flooded paddy test plant response; conditions: Flood, 250 g ai/ha; scale of 0 to 100 where 0 is no effect and 100 is complete control; 13 to 15 days
Procedure, shortened: as §1

[5] = system: wheat (Triticum aestivum); experiment: Test B pre-/postemergence plant response
Procedure, shortened: (§2)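 Visual injury scores on a 0–100 scale (100 = complete control) relative to untreated plants, taken about 10 days post-treatment in greenhouse. Treatments were a directed preemergence soil spray and a postemergence spray at one- to two-leaf stage, using surfactant-containing solvent formulation.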

[6] = system: barnyardgrass (Echinochloa crus-galli); experiment: Test B pre-/postemergence plant response
Procedure, shortened: as §2

[7] = system: corn (Zea mays); experiment: Test B pre-/postemergence plant response
Procedure, shortened: as §2

[8] = system: pigweed (Amaranthus retroflexus); experiment: Test B pre-/postemergence plant response
Procedure, shortened: as §2

[9] = system: giant foxtail (Setaria faberii); experiment: Test B pre-/postemergence plant response
Procedure, shortened: as §2

[10] = system: blackgrass (Alopecurus myosuroides); experiment: Test D pre-/postemergence plant response; conditions: Postemergence; for Blackgrass plant response rating: scale 0 to 100 (0 no effect, 100 complete control); for Plant response rating, Blackgrass: scale 0 to 100, 0 no effect, 100 complete control
Procedure, shortened: (§3)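 Ratings were visual, 0 = no effect to 100 = complete control, taken against untreated controls after 13 to 15 days in a greenhouse. Chemicals, formulated in non-phytotoxic surfactant-containing solvent, went onto soil (loam/sand) at planting for preemergence, or onto 1- to 4-leaf plants (2–18 cm) for postemergence.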

[11] = system: galium (catchweed bedstraw, Galium aparine); experiment: Test D pre-/postemergence plant response; conditions: Postemergence; for Galium plant response rating: 31 g ai/ha, scale 0 to 100 (0 no effect, 100 complete control); for Plant response rating, Galium: scale 0 to 100, 0 no effect, 100 complete control
Procedure, shortened: as §3

[12] = system: lambsquarters (Chenopodium album); experiment: Test D pre-/postemergence plant response; conditions: Postemergence; for Lambsquarters plant response rating: 31 g ai/ha, scale 0 to 100 (0 no effect, 100 complete control); for Plant response rating, Lambsquarters: scale 0 to 100, 0 no effect, 100 complete control
Procedure, shortened: as §3

[13] = system: johnsongrass (Sorghum halepense); experiment: Test D pre-/postemergence plant response; conditions: Postemergence; for Johnsongrass plant response rating: 31 g ai/ha, scale 0 to 100 (0 no effect, 100 complete control); for Plant response rating, Johnsongrass: scale 0 to 100, 0 no effect, 100 complete control
Procedure, shortened: as §3

[14] = system: winter wheat (Triticum aestivum); experiment: Test D pre-/postemergence plant response; conditions: Postemergence; for Wheat plant response rating: 31 g ai/ha, scale 0 to 100 (0 no effect, 100 complete control); for Plant response rating, Wheat: scale 0 to 100, 0 no effect, 100 complete control
Procedure, shortened: as §3

[15] = system: large (Lg) crabgrass (Digitaria sanguinalis); experiment: Test D pre-/postemergence plant response; conditions: Postemergence; for Crabgrass, Large plant response rating: scale 0 to 100 (0 no effect, 100 complete control); for Plant response rating, Crabgrass, Large: scale 0 to 100, 0 no effect, 100 complete control
Procedure, shortened: as §3

[16] = system: velvetleaf (Abutilon theophrasti); experiment: Test D pre-/postemergence plant response; conditions: Postemergence; for Velvetleaf plant response rating: 31 g ai/ha, scale 0 to 100 (0 no effect, 100 complete control); for Plant response rating, Velvetleaf: scale 0 to 100, 0 no effect, 100 complete control
Procedure, shortened: as §3

[17] = 125 g ai/ha, postemergence, 0 to 100 scale, 0 no effect, 100 complete control
[18] = Postemergence, 31 g ai/ha, 0 to 100 scale (0 no effect, 100 complete control)
[19] = 31 g ai/ha, Preemergence, 0 to 100 scale where 0 is no effect and 100 is complete control
[20] = Preemergence, 125 g ai/ha, 0 to 100 scale (0 no effect, 100 complete control)
[21] = Postemergence, 500 g ai/ha, 0 to 100 scale (0 no effect, 100 complete control)
[22] = Preemergence, 500 g ai/ha, 0 to 100 scale where 0 is no effect and 100 is complete control

With `CC(F)(F)c1cc(-c2ccccc2Oc2ncc(Br)cn2)no1` [Compound 149] the “Barnyardgrass plant response rating” value [1] was 0, the “Rice plant response rating” value [2] was 0 and the “Ducksalad plant response rating” value [3] was 80. The “Sedge, Umbrella plant response rating” value [4] was 65, the “Plant response rating, Wheat” value [5, 17] was 10 and the “Plant response rating, Wheat” value [5, 18] was 0. For the same molecule, the “Plant response rating, Barnyardgrass” value [6, 19] was 10, the “Plant response rating, Barnyardgrass” value [6, 17] was 40 and the “Plant response rating, Barnyardgrass” value [6, 18] was 10. For the same molecule, the “Barnyardgrass plant response rating” value [6, 20] was 70, the “Plant response rating, Corn” value [7, 17] was 20 and the “Plant response rating, Corn” value [7, 18] was 10. For the same molecule, the “Plant response rating, Pigweed” value [8, 19] was 80, the “Plant response rating, Pigweed” value [8, 17] was 100 and the “Plant response rating, Pigweed” value [8, 18] was 90. For the same molecule, the “Pigweed plant response rating” value [8, 20] was 100, the “Plant response rating, Foxtail, Giant” value [9, 19] was 70 and the “Plant response rating, Foxtail, Giant” value [9, 17] was 60. For the same molecule, the “Plant response rating, Foxtail, Giant” value [9, 18] was 10, the “Foxtail, Giant plant response rating” value [9, 20] was 100 and the “Blackgrass plant response rating” value ([10]; 16 g ai/ha) was 0. The “Blackgrass plant response rating” value ([10]; 31 g ai/ha) was 0, the “Plant response rating, Blackgrass” value ([10]; 62 g ai/ha) was 0 and the “Plant response rating, Blackgrass” value ([10]; 125 g ai/ha) was 30. The “Galium plant response rating” value [11] was 60, the “Plant response rating, Galium” value ([11]; 62 g ai/ha) was 70 and the “Plant response rating, Galium” value ([11]; 125 g ai/ha) was 95. For the same molecule, the “Lambsquarters plant response rating” value [12] was 70, the “Plant response rating, Lambsquarters” value ([12]; 62 g ai/ha) was 80 and the “Plant response rating, Lambsquarters” value ([12]; 125 g ai/ha) was 85. The “Johnsongrass plant response rating” value [13] was 10, the “Plant response rating, Johnsongrass” value ([13]; 62 g ai/ha) was 15 and the “Plant response rating, Johnsongrass” value ([13]; 125 g ai/ha) was 10. For the same molecule, the “Wheat plant response rating” value [14] was 0, the “Plant response rating, Wheat” value ([14]; 62 g ai/ha) was 0 and the “Plant response rating, Wheat” value ([14]; 125 g ai/ha) was 10. The “Crabgrass, Large plant response rating” value ([15]; 16 g ai/ha) was 5, the “Crabgrass, Large plant response rating” value ([15]; 31 g ai/ha) was 5 and the “Plant response rating, Crabgrass, Large” value ([15]; 62 g ai/ha) was 10. The “Plant response rating, Crabgrass, Large” value ([15]; 125 g ai/ha) was 15, the “Velvetleaf plant response rating” value [16] was 30 and the “Plant response rating, Velvetleaf” value ([16]; 62 g ai/ha) was 40. The “Plant response rating, Velvetleaf” value ([16]; 125 g ai/ha) was 65.

`Cc1cc(-c2ccccc2Oc2ncc(Cl)cn2)no1` [Compound 153] was tested, and the “Barnyardgrass plant response rating” value [1] was 0, the “Rice plant response rating” value [2] was 0 and the “Ducksalad plant response rating” value [3] was 0. The “Sedge, Umbrella plant response rating” value [4] was 0, the “Plant response rating, Wheat” value [5, 17] was 30 and the “Plant response rating, Wheat” value [5, 21] was 50. The “Plant response rating, Barnyardgrass” value [6, 17] was 0, the “Plant response rating, Barnyardgrass” value [6, 21] was 70 and the “Barnyardgrass plant response rating” value [6, 20] was 0. For the same molecule, the “Plant response rating, Barnyardgrass” value [6, 22] was 100, the “Plant response rating, Corn” value [7, 17] was 30 and the “Plant response rating, Corn” value [7, 21] was 40. The “Plant response rating, Pigweed” value [8, 17] was 100, the “Plant response rating, Pigweed” value [8, 21] was 100 and the “Pigweed plant response rating” value [8, 20] was 100. For the same molecule, the “Plant response rating, Pigweed” value [8, 22] was 100, the “Plant response rating, Foxtail, Giant” value [9, 17] was 20 and the “Plant response rating, Foxtail, Giant” value [9, 21] was 90. For the same molecule, the “Foxtail, Giant plant response rating” value [9, 20] was 30, the “Plant response rating, Foxtail, Giant” value [9, 22] was 100 and the “Blackgrass plant response rating” value ([10]; 16 g ai/ha) was 0. For the same molecule, the “Blackgrass plant response rating” value ([10]; 31 g ai/ha) was 0, the “Plant response rating, Blackgrass” value ([10]; 62 g ai/ha) was 0 and the “Plant response rating, Blackgrass” value ([10]; 125 g ai/ha) was 0. The “Galium plant response rating” value [11] was 70, the “Plant response rating, Galium” value ([11]; 62 g ai/ha) was 70 and the “Plant response rating, Galium” value ([11]; 125 g ai/ha) was 80. The “Lambsquarters plant response rating” value [12] was 35, the “Plant response rating, Lambsquarters” value ([12]; 62 g ai/ha) was 30 and the “Plant response rating, Lambsquarters” value ([12]; 125 g ai/ha) was 50. The “Johnsongrass plant response rating” value [13] was 0, the “Plant response rating, Johnsongrass” value ([13]; 62 g ai/ha) was 5 and the “Plant response rating, Johnsongrass” value ([13]; 125 g ai/ha) was 10. For the same molecule, the “Wheat plant response rating” value [14] was 0, the “Plant response rating, Wheat” value ([14]; 62 g ai/ha) was 5 and the “Plant response rating, Wheat” value ([14]; 125 g ai/ha) was 10. For the same molecule, the “Crabgrass, Large plant response rating” value ([15]; 16 g ai/ha) was 0, the “Crabgrass, Large plant response rating” value ([15]; 31 g ai/ha) was 5 and the “Plant response rating, Crabgrass, Large” value ([15]; 62 g ai/ha) was 5. For the same molecule, the “Plant response rating, Crabgrass, Large” value ([15]; 125 g ai/ha) was 10, the “Velvetleaf plant response rating” value [16] was 20 and the “Plant response rating, Velvetleaf” value ([16]; 62 g ai/ha) was 60. For the same molecule, the “Plant response rating, Velvetleaf” value ([16]; 125 g ai/ha) was 50.

With `FC(F)(F)c1cc(-c2c(I)cccc2Oc2ncc(Cl)cn2)no1` [Compound 156] the “Barnyardgrass plant response rating” value [1] was 0, the “Rice plant response rating” value [2] was 0 and the “Ducksalad plant response rating” value [3] was 0. For the same molecule, the “Sedge, Umbrella plant response rating” value [4] was 0, the “Plant response rating, Wheat” value [5, 17] was 20 and the “Plant response rating, Wheat” value [5, 21] was 30. The “Plant response rating, Barnyardgrass” value [6, 17] was 0, the “Plant response rating, Barnyardgrass” value [6, 21] was 20 and the “Barnyardgrass plant response rating” value [6, 20] was 0. For the same molecule, the “Plant response rating, Barnyardgrass” value [6, 22] was 20, the “Plant response rating, Corn” value [7, 17] was 20 and the “Plant response rating, Corn” value [7, 21] was 40. For the same molecule, the “Plant response rating, Pigweed” value [8, 17] was 90, the “Plant response rating, Pigweed” value [8, 21] was 100 and the “Pigweed plant response rating” value [8, 20] was 80. For the same molecule, the “Plant response rating, Pigweed” value [8, 22] was 100, the “Plant response rating, Foxtail, Giant” value [9, 17] was 20 and the “Plant response rating, Foxtail, Giant” value [9, 21] was 90. For the same molecule, the “Foxtail, Giant plant response rating” value [9, 20] was 20, the “Plant response rating, Foxtail, Giant” value [9, 22] was 80 and the “Plant response rating (scale 0 to 100), Blackgrass” value ([10]; 8 g ai/ha) was 0. For the same molecule, the “Blackgrass plant response rating” value ([10]; 16 g ai/ha) was 0, the “Blackgrass plant response rating” value ([10]; 31 g ai/ha) was 5 and the “Plant response rating, Blackgrass” value ([10]; 62 g ai/ha) was 5. The “Plant response rating (scale 0 to 100), Galium” value ([11]; 8 g ai/ha) was 20, the “Galium plant response rating” value [11] was 60 and the “Plant response rating, Galium” value ([11]; 62 g ai/ha) was 70. For the same molecule, the “Plant response rating (scale 0 to 100), Lambsquarters” value ([12]; 8 g ai/ha) was 10, the “Lambsquarters plant response rating” value [12] was 35 and the “Plant response rating, Lambsquarters” value ([12]; 62 g ai/ha) was 40. The “Plant response rating (scale 0 to 100), Johnsongrass” value ([13]; 8 g ai/ha) was 0, the “Johnsongrass plant response rating” value [13] was 5 and the “Plant response rating, Johnsongrass” value ([13]; 62 g ai/ha) was 10. The “Plant response rating (scale 0 to 100), Wheat” value ([14]; 8 g ai/ha) was 0, the “Wheat plant response rating” value [14] was 5 and the “Plant response rating, Wheat” value ([14]; 62 g ai/ha) was 10. The “Plant response rating (scale 0 to 100), Crabgrass, Large” value ([15]; 8 g ai/ha) was 0, the “Crabgrass, Large plant response rating” value ([15]; 16 g ai/ha) was 5 and the “Crabgrass, Large plant response rating” value ([15]; 31 g ai/ha) was 5. The “Plant response rating, Crabgrass, Large” value ([15]; 62 g ai/ha) was 10, the “Plant response rating (scale 0 to 100), Velvetleaf” value ([16]; 8 g ai/ha) was 0 and the “Velvetleaf plant response rating” value [16] was 15. The “Plant response rating, Velvetleaf” value ([16]; 62 g ai/ha) was 25.
